Data: patent publication US9428460B2, “N-[4-(quinolin-4-yloxy)cyclohexyl(methyl)](hetero)arylcarboxamides as androgen receptor antagonists, production and use thereof as medicinal products” (BAYER PHARMA AKTIENGESELLSCHAFT, priority 2012, dated 2016)

Experiments:
[1] = target: androgen receptor mutant W741C (Homo sapiens (Human), UniProt P10275, W742C); assay: Transactivation assay for the androgen receptor mutant W741C (transfected PC-3 cells); type: cell-based; details: in the presence of 1×10^−10 M R1881, 24 hours
Description: PC-3 cells (Kaighn et al., Invest. Urol. 17: 16-23, 1979) were plated out at a density of 10000 cells per well of a 96-well cell culture plate in RMPI 1640 medium (F1235, Biochrom AG, Berlin, Germany), which contained activated charcoal-treated calf serum (FCS Serum Gold, PAA Laboratories) at a concentration of 5% (v/v). On the next day the cells were transiently transfected with the pSG5-vector (#216201 Stratagene), which contained the sequence of the androgen receptor mutant W741C (Haapala et al., Lab Invest. 81(12): 1647-51, 2001), and with a reporter plasmid based on pGL4.14 (#E6691, Promega) with the luciferase-gene (from Photinus pyralis) under the control of the MMTV promoter (Cato et al., EMBO J. 6: 363-8, 1987). The cells were treated with the test substances in concentrations from 1×10^−8 to 1×10^−10 M in the presence of 1×10^−10 M R1881 and were incubated overnight at 37° C. and 5% CO2. After 24 hours, 100 μl of Steady Glo Lysis and Detection reagent (E2550, Promega) was added per well and the luminescence was read in a Victor3 Luminometer (PerkinElmer) for 1 second per well. The luminescence values obtained were normalized, wherein 100% corresponded to the effect of the unstimulated control (without R1881), and 0% corresponded to the effect of the stimulated control (R1881 plus DMSO instead of test substance). The IC50 value was determined by regression analysis based on a four-parameter equation (minimum, maximum, IC50, Hill coefficient; Y=Max+(Min−Max)/(1+(X/IC50)^Hill)).

[2] = target: androgen receptor mutant E709Y (Homo sapiens (Human), UniProt P10275, E710Y); assay: Transactivation assay for the androgen receptor mutant E709Y (transfected PC-3 cells); type: cell-based; details: in the presence of 1×10^−10 M R1881, 24 hours
Description: PC-3 cells (Kaighn et al., Invest. Urol. 17: 16-23, 1979) were plated out at a density of 10000 cells per well of a 96-well cell culture plate in RMPI 1640 medium (F1235, Biochrom AG Berlin, Germany) that contained activated charcoal-treated calf serum (FCS Serum Gold, PAA Laboratories) at a concentration of 5% (v/v). On the next day the cells were transiently transfected with the pSG5-vector (#216201 Stratagene), which contained the sequence of the androgen receptor mutant E709Y (Georget et al., Mol. Endocrinol. 20(4): 724-734, 2006), and with the MMTV-luciferase plasmid (see above, transactivation assay for the androgen receptor mutant W741C). The cells were treated with the test substances in concentrations from 1×10^−8 to 1×10^−10 M in the presence of 1×10^−10 M R1881 and were incubated overnight at 37° C. and 5% CO2. After 24 hours, 100 μl of Steady Glo Lysis and Detection reagent (E2550, Promega) was added per well and the luminescence was read in a Victor3 Luminometer (PerkinElmer) for 1 second per well. The luminescence values obtained were normalized, wherein 100% corresponded to the effect of the unstimulated control (without R1881), and 0% corresponded to the effect of the stimulated control (R1881 plus DMSO instead of test substance). The IC50 value was determined by regression analysis based on a four-parameter equation (minimum, maximum, IC50, Hill coefficient; Y=Max+(Min−Max)/(1+(X/IC50)^Hill)).

[3] = test system: human uterine leiomyoma xenografts; assay: Growth of human xenografts from leiomyoma tissue in immunodeficient mice; type: in vivo, mouse
Description: The growth-inhibiting action of inhibitors of the androgen receptor was tested in a xenograft animal model with subcutaneously transplanted tissue fragments from human leiomyomas.
Human uterine leiomyoma tissue was derived from surgery, in which, based on the diagnosis, either a hysterectomy or a myomectomy was carried out. The uterine leiomyomas (UL) were then prepared free either from the removed uterus or by myomectomy in situ; in the last-mentioned method, the myomas were removed whole or by morcellation from the abdominal cavity.
The prepared myomas were then immediately put in a suitable sterile buffer (Vitron V7 Buffer (U.S. Pat. No. 5,328,821) or Viaspan organ transplant buffer) at 4° C. for further transport. Then, on a sterile bench with constant moistening, the UL tissue was cut into small blocks with 2×2×2 mm or 2×4×4 mm edge lengths, and the pieces of tissue were stored in a cell culture dish in PBS at room temperature until transplantation (M Fritsch et al. 2010, ISGE abstract & presentation).
Immunodeficient mice (ICR SCID, CB17 SCID, ICR-Hrhr SCID or SCID beige mice) were ovariectomized at the age of 6-8 weeks (OVX). At the earliest one week after OVX, pellets releasing 17β-estradiol (E2, 0.05 mg/90 d, Innovative Research of America, catalogue number NE-121) and progesterone (P, 25 mg/60 d, Innovative Research of America, catalogue number SP-131) (Innovative Research of America, Sarasota, Fla./USA) were transplanted into the neck region of the animals. Alternatively, the animals can be given replacement therapy with other implants or methods that ensure continuous release of the hormones 17β-estradiol and progesterone. […]
UL tissue in situ was as a rule characterized by an excessive synthesis and accumulation of proteins of the extracellular matrix, and by increased cell proliferation. […] If specific mechanisms of action of the test substances were known or presumed, in addition the cell proliferation and/or the proportion of the extracellular matrix were determined by histological staining. […]

androgen receptor mutant W741C, sequence (P10275 whole entry W742C): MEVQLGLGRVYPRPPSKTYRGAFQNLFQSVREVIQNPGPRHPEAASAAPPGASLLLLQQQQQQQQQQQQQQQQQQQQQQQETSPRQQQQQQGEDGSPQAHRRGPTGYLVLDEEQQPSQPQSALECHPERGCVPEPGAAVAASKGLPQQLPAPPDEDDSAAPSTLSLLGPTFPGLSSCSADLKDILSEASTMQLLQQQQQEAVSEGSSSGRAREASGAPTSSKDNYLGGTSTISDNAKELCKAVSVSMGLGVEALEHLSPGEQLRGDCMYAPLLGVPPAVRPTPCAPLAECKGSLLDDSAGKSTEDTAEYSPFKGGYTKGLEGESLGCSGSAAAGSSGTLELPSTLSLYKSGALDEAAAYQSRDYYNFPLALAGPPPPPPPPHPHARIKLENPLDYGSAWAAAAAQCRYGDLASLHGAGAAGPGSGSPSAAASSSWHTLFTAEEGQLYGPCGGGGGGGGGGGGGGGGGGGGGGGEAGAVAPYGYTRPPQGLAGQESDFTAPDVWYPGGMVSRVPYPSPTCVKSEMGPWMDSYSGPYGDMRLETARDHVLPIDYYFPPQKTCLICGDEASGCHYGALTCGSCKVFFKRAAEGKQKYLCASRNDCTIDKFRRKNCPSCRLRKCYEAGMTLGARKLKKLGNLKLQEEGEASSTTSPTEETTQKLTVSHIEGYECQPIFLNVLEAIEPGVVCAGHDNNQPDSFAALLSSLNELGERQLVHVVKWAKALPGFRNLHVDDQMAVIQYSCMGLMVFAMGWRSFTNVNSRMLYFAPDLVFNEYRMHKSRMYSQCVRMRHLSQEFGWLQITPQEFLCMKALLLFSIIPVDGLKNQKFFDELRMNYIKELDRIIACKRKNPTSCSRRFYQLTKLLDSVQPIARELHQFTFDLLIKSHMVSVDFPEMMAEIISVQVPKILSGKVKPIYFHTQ
androgen receptor mutant E709Y, sequence (P10275 whole entry E710Y): as the sequence (P10275 whole entry W742C) above, with E710Y, C742W counted along it

IC50 [1]: 30 nM
IC50 [2]: 9 nM
Compound: N#Cc1cccc2c(O[C@H]3CC[C@H](NC(=O)c4cccc(F)c4)CC3)ccnc12 [Example 23, N-{trans-4-[(8-cyanoquinolin-4-yl)oxy]cyclohexyl}-3-fluorobenzamide]
inhibition of the growth of uterine leiomyoma xenografts ([3]; 70 mg/kg/d, in 3 out of 4 independent experiments with tissue from different donors): significant inhibition
average inhibition of the normalized xenograft growth over the transplantation weight on day 0 ([3]; dose of 25 mg/kg/d): −24%
average inhibition of the normalized xenograft growth over the transplantation weight on day 0 ([3]; dose of 70 mg/kg/d): −59%
